The record followed here is paper PMC10620091 (Nature, 2023).

A word on the Kd: it is the free concentration of one partner at which half of the binding sites on the other are occupied at equilibrium, for simple one-to-one binding. In general, stoichiometry N refers to a count of units in the complex or per binding partner.

Data set [1] deals with T1, SpSLC9C1 (Strongylocentrotus purpuratus, UniProt A3RL54).
T1 construct: gene SLC9C1; ITC and nanoDSF: isolated CTD (S946–E1193: helix E', CNBD and β-CTD); cryo-EM: full-length SpSLC9C1 in lipid nanodiscs
T1 sequence (A3RL54 946-1193): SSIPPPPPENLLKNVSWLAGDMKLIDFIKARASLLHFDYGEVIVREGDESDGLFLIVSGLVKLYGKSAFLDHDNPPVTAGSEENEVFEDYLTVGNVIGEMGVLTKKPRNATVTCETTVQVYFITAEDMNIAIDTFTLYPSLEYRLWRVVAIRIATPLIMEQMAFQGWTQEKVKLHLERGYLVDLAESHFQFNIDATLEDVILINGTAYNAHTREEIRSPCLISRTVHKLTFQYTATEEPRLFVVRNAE
Nature of the data set: ITC (isolated CTD), nanoDSF ([…] °C shift), cryo-EM structure. It counts as binding. In general terms: In DSF a fluorescence change marks the thermal transition of the protein.

Data set [2] deals with the molecule itself. Kind of data set: cryo-EM structure; ligand-free SpSLC9C1 in MSP 2N2 / soy polar lipid nanodiscs, pH 7.6, 150 mM Na+ (20 mM HEPES pH 7.6, 150 mM NaCl); C2 symmetry imposed on the final dimer map.

As for `Nc1nc2c(ncn2[C@@H]2O[C@@H]3COP(=O)(O)O[C@H]3[C@H]2O)c(=O)[nH]1` [cGMP], the Kd in data set [1] was 9.3 µM.

B1: SpSLC9C1 (sperm-specific Na+/H+ exchanger SLC9C1 from the sea urchin Strongylocentrotus purpuratus) (natural protein, UniProt A3RL54 30-1325, looked up)
chain: SSGGSGHTPTTQATHADDHDLTTHNGTEEHDDGHDDGHDDLHAHAPKVIVFISGSCLFGAISRSLFKKLPIPYTVVLLILGAILGVVASNVPLVEEHTRDVAHMDPHVLLQIFLPVLIFESAFAMDVHTFMRSFSQVCILALFGLVVASVLTAVLAMNLFNYNWNFSEAMMFGAIMSATDPVAVVALLKDLGASKQLGTIIEGESLLNDGCAIVIFNVFMKMVFFPQLTSTVGQNVLYFLQVAVAGPLWGYAVAKVTVFFLSHIFNDALVEITITLAATYLTYYIGDIWLEVSGVLAVVVLGLIVNAEKTSISPEVEVFLHRFWEMLAYLANTLIFMMVGVVVTQKALVAVDKMDWFYLIILYLAITIIRGMVISLFSPILSRIGYGLTWRNAVIMTWGGLRGAVGLALALVVENLAGNDVIGSKFLFHTAGIVVLTLVINATTIQTLLRILGMSDISIPKRLAMAGAVRRIHEGQNRTLNMLKSDRFLADADWDIATAACEISDPYSALSDDENAPADELTLGERKSVCPGCKAMVPNEPSPREFADMMEEARLRMLKAEKISYWKQFEHGMLAREALRLLVQHAEVAADEKDQFILVDDLKKSWQIKGIYPWLKRKLEDLISEKKIAAIPMPKYKLGKLMYKICHHMAFEVTINIAIVLNIVPIIMEFVVQDKMASVSTMAAPGSTVSSEPSSLQKIEDALRISNYVFFVIYAIEAIVKILGLGRHYIVSHWNKFDAFILVVALVDIIIAETLLKGSITINLSSIKVVKLFRLLRGLRMLRLTKALIPKLILVVNGKINNQLSLGYDVGKGYIIGEEEVGKIIDRMVDNKKILRELKHISETGRLQVVKELGLLQREHPGIAVSVKTRQAIRTILNHSRETIHELQGAGLLDEMEAHKLELTVEIKMKRLMNAPSSIPPPPPENLLKNVSWLAGDMKLIDFIKARASLLHFDYGEVIVREGDESDGLFLIVSGLVKLYGKSAFLDHDNPPVTAGSEENEVFEDYLTVGNVIGEMGVLTKKPRNATVTCETTVQVYFITAEDMNIAIDTFTLYPSLEYRLWRVVAIRIATPLIMEQMAFQGWTQEKVKLHLERGYLVDLAESHFQFNIDATLEDVILINGTAYNAHTREEIRSPCLISRTVHKLTFQYTATEEPRLFVVRNAEYNGPILDGRLDVDSKRSLISITEISSNMCLKHAAELRQKNSKVMLSRKSSGAAAKEEEDCIPNTSDVEQAAGVSPSVPTKTTPKPKSFLPSLGLSMSKERVNGEAVEESPVKTKQGEETPETEEGAAPRVNV
notes: SpSLC9C1, Strongylocentrotus purpuratus, UniProt A3RL54, gene codon-optimized for mammalian cells; full-length protein; the first 70 N-terminal residues are not resolved in the maps; C-terminal HRV-3C cleavage site followed by Venus, myc and SBP tags; the tags were cleaved off with HRV-3C, so residues of the cleavage site may remain at the C-terminus; Homodimer by cryo-EM; also called full-length …
Take B1: in data set [2], the “stoichiometry N” value amounted to 2.
